# Results: PubChem BioAssay AID256 (DTP/NCI, 2004)
# Several values for one entry are separate records, joined by “and”; a condition that tells them apart may be missing. Equal entries are not always repeated. Toxic doses and inconclusive results are not listed.
# System: CD2F1 mice, L1210 leukemia ip, survival T/C
# Test: NCI In Vivo Anticancer Drug Screen. Data for tumor model L1210 Leukemia (intraperitoneal) in CD2F1 (CDF1) mice
# Details: higher = longer survival
# Summary of the method: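 Each value reflects a quotient of treated over vehicle control outcomes in mice with a transplanted tumor.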
# [1] = endpoint: mean survival time, dose: 100.0 mg/kg/injection, schedule: Q04DX003 (ip), vehicle: saline with Tween-80
# [2] = endpoint: mean survival time, dose: 200.0 mg/kg/injection, schedule: Q04DX003 (ip), vehicle: saline with Tween-80
# [3] = endpoint: mean survival time, dose: 400.0 mg/kg/injection, schedule: Q04DX003 (ip), vehicle: saline with Tween-80
# [4] = endpoint: mean survival time, dose: 25.0 mg/kg/injection, schedule: Q04DX003 (ip), vehicle: saline with Tween-80
# [5] = endpoint: mean survival time, dose: 100.0 mg/kg/injection, schedule: Q01DX009 (ip), vehicle: saline with Tween-80
# [6] = endpoint: mean survival time, dose: 100.0 mg/kg/injection, schedule: Q01DX009 (ip), vehicle: saline
# [7] = endpoint: mean survival time, dose: 200.0 mg/kg/injection, schedule: Q01DX009 (ip), vehicle: saline
# [8] = endpoint: mean survival time, dose: 6.25 mg/kg/injection, schedule: Q04DX003 (ip), vehicle: distilled water + Tween-80
# [9] = endpoint: mean survival time, dose: 12.5 mg/kg/injection, schedule: Q04DX003 (ip), vehicle: distilled water + Tween-80
# [10] = endpoint: mean survival time, dose: 25.0 mg/kg/injection, schedule: Q04DX003 (ip), vehicle: distilled water + Tween-80
# [11] = endpoint: mean survival time, dose: 50.0 mg/kg/injection, schedule: Q04DX003 (ip), vehicle: distilled water + Tween-80
# [12] = endpoint: mean survival time, dose: 100.0 mg/kg/injection, schedule: Q04DX003 (ip), vehicle: saline
# [13] = endpoint: mean survival time, dose: 200.0 mg/kg/injection, schedule: Q04DX003 (ip), vehicle: saline
# [14] = endpoint: mean survival time, dose: 400.0 mg/kg/injection, schedule: Q04DX003 (ip), vehicle: saline
compound,measurement,setting,value
O=[N+]([O-])c1ccc(COc2ccc(Cl)cc2)cc1,T/C,[1],92 % of control
same,T/C,[2],103 % of control
same,T/C,[3],94 % of control
O=C(c1ccccc1)c1cc(-c2ccccc2)nc2ccccc2c2ccccc2[nH]1,T/C,"endpoint: mean survival time, dose: 100.0 mg/kg/injection, schedule: Q01DX001 (ip), vehicle: Klucel (hydroxypropylcellulose) (HPC)",93 % of control
same,T/C,"endpoint: mean survival time, dose: 200.0 mg/kg/injection, schedule: Q01DX001 (ip), vehicle: Klucel (hydroxypropylcellulose) (HPC)",91 % of control
same,T/C,"endpoint: mean survival time, dose: 400.0 mg/kg/injection, schedule: Q01DX001 (ip), vehicle: Klucel (hydroxypropylcellulose) (HPC)",100 % of control
N#CSC/C(Br)=C/Br,T/C,"endpoint: mean survival time, dose: 6.25 mg/kg/injection, schedule: Q04DX003 (ip), vehicle: saline with Tween-80",97 % of control
same,T/C,"endpoint: mean survival time, dose: 12.5 mg/kg/injection, schedule: Q04DX003 (ip), vehicle: saline with Tween-80",103 % of control
same,T/C,[4],92 % of control
CCOC(=O)CCOc1ccccc1N(CCCl)CCCl,T/C,[5],87 % of control
CC(C)(CCC(=S)N1CCOCC1)C1CCCCC1,T/C,[1],97 % of control
same,T/C,[2],96 % of control
same,T/C,[3],97 % of control
C[n+]1ccc(CCC(=O)Nc2ccccc2)cc1,T/C,[1],100 % of control
same,T/C,[2],100 % of control
CCN(CC)C(=O)c1ccccc1,T/C,[6],98 % of control
same,T/C,[7],98 % of control
CCCCCCCCCCCCCCCCOC(=O)c1cc([N+](=O)[O-])cc([N+](=O)[O-])c1Sc1ncnc2nc[nH]c12,T/C,"endpoint: mean survival time, dose: 0.63 mg/kg/injection, schedule: Q01DX005 (ip), vehicle: other",105 % of control
same,T/C,"endpoint: mean survival time, dose: 1.25 mg/kg/injection, schedule: Q01DX005 (ip), vehicle: other",108 % of control
same,T/C,"endpoint: mean survival time, dose: 2.5 mg/kg/injection, schedule: Q01DX005 (ip), vehicle: other",113 % of control
same,T/C,"endpoint: mean survival time, dose: 5.0 mg/kg/injection, schedule: Q01DX005 (ip), vehicle: other",113 % of control
same,T/C,"endpoint: mean survival time, dose: 10.0 mg/kg/injection, schedule: Q01DX005 (ip), vehicle: other",120 % of control
same,T/C,"endpoint: mean survival time, dose: 12.5 mg/kg/injection, schedule: Q01DX005 (ip), vehicle: other",109 % of control
same,T/C,"endpoint: mean survival time, dose: 15.7 mg/kg/injection, schedule: Q01DX005 (ip), vehicle: other",106 % of control
same,T/C,"endpoint: mean survival time, dose: 25.0 mg/kg/injection, schedule: Q01DX005 (ip), vehicle: other",117 % of control and 112 % of control
same,T/C,"endpoint: mean survival time, dose: 31.3 mg/kg/injection, schedule: Q01DX005 (ip), vehicle: other",124 % of control
same,T/C,"endpoint: mean survival time, dose: 50.0 mg/kg/injection, schedule: Q01DX005 (ip), vehicle: other",115 % of control and 122 % of control
same,T/C,"endpoint: mean survival time, dose: 100.0 mg/kg/injection, schedule: Q01DX005 (ip), vehicle: other",116 % of control
same,T/C,"endpoint: mean survival time, dose: 400.0 mg/kg/injection, schedule: Q01DX005 (ip), vehicle: other",118 % of control
C=CCCCCCCCCC(=O)NCc1cccnc1,T/C,[1],98 % of control
same,T/C,[2],104 % of control
same,T/C,[3],90 % of control
CC(C)(C[NH-])C[NH-].[Cl][Pt+2]([Cl])([Cl])[Cl],T/C,"endpoint: median survival time, dose: 0.2 mg/kg/injection, schedule: Q04DX003 (ip), vehicle: water",116 % of control and 111 % of control
same,T/C,"endpoint: median survival time, dose: 0.4 mg/kg/injection, schedule: Q04DX003 (ip), vehicle: water",116 % of control and 124 % of control
same,T/C,"endpoint: median survival time, dose: 1.6 mg/kg/injection, schedule: Q04DX003 (ip), vehicle: water",151 % of control and 186 % of control and 228 % of control
same,T/C,"endpoint: median survival time, dose: 3.12 mg/kg/injection, schedule: Q04DX003 (ip), vehicle: distilled water + Tween-80",123 % of control
[Cl][Pt+2][Cl].[NH-]c1cccc(I)c1.[NH-]c1cccc(I)c1,T/C,"endpoint: mean survival time, dose: 3.12 mg/kg/injection, schedule: Q04DX003 (ip), vehicle: distilled water + Tween-80",103 % of control
same,T/C,[8],110 % of control
same,T/C,[9],108 % of control
same,T/C,[10],106 % of control
same,T/C,[11],112 % of control
same,T/C,"endpoint: mean survival time, dose: 100.0 mg/kg/injection, schedule: Q04DX003 (ip), vehicle: distilled water + Tween-80",112 % of control
N#CS.N=C=S.N=C=S.[Co+3].[NH-]CC[NH-].[NH-]CC[NH-],T/C,"endpoint: mean survival time, dose: 100.0 mg/kg/injection, schedule: Q04DX002 (ip), vehicle: saline",111 % of control
same,T/C,"endpoint: mean survival time, dose: 200.0 mg/kg/injection, schedule: Q04DX002 (ip), vehicle: saline",104 % of control
CCCOC(=O)C1CCCCC1C(=O)OCCC (centres undefined),T/C,[12],98 % of control
same,T/C,[13],98 % of control
same,T/C,[14],104 % of control
COC(=O)Nc1cccc(-c2nc3ccc(NC(=O)OC)cc3c(=O)n2-c2ccccc2)c1,T/C,"endpoint: mean survival time, dose: 50.0 mg/kg/injection, schedule: Q01DX009 (ip), vehicle: Klucel (hydroxypropylcellulose) (HPC)",114 % of control
same,T/C,"endpoint: mean survival time, dose: 100.0 mg/kg/injection, schedule: Q01DX009 (ip), vehicle: Klucel (hydroxypropylcellulose) (HPC)",91 % of control
same,T/C,"endpoint: median survival time, dose: 50.0 mg/kg/injection, schedule: Q04DX003 (ip), vehicle: saline with Tween-80",101 % of control
same,T/C,"endpoint: median survival time, dose: 100.0 mg/kg/injection, schedule: Q04DX003 (ip), vehicle: saline with Tween-80",103 % of control
same,T/C,"endpoint: median survival time, dose: 200.0 mg/kg/injection, schedule: Q04DX003 (ip), vehicle: saline with Tween-80",100 % of control
NNC(=O)Sc1ccccc1,T/C,"endpoint: mean survival time, dose: 100.0 mg/kg/injection, schedule: Q01DX001 (ip), vehicle: saline",107 % of control
same,T/C,"endpoint: mean survival time, dose: 200.0 mg/kg/injection, schedule: Q01DX001 (ip), vehicle: saline",111 % of control
same,T/C,"endpoint: mean survival time, dose: 400.0 mg/kg/injection, schedule: Q01DX001 (ip), vehicle: saline",102 % of control
CCCCCCCCCCCCOc1ccc(F)cc1C,T/C,"endpoint: mean survival time, dose: 100.0 mg/kg/injection, schedule: Q04DX002 (ip), vehicle: saline with Tween-80",93 % of control
same,T/C,"endpoint: mean survival time, dose: 200.0 mg/kg/injection, schedule: Q04DX002 (ip), vehicle: saline with Tween-80",93 % of control
same,T/C,"endpoint: mean survival time, dose: 400.0 mg/kg/injection, schedule: Q04DX002 (ip), vehicle: saline with Tween-80",96 % of control
CC(C)CCCCCOC(=O)Nc1cccc2ccccc12,T/C,"endpoint: mean survival time, dose: 100.0 mg/kg/injection, schedule: Q01DX001 (ip), vehicle: saline with Tween-80",92 % of control
same,T/C,"endpoint: mean survival time, dose: 200.0 mg/kg/injection, schedule: Q01DX001 (ip), vehicle: saline with Tween-80",89 % of control
same,T/C,"endpoint: mean survival time, dose: 400.0 mg/kg/injection, schedule: Q01DX001 (ip), vehicle: saline with Tween-80",92 % of control
CC(=O)C(c1ccccc1)C(c1ccccc1)P(=O)(c1ccccc1)c1ccccc1 (centres undefined),T/C,[5],87 % of control
same,T/C,[1],97 % of control
same,T/C,"endpoint: mean survival time, dose: 200.0 mg/kg/injection, schedule: Q01DX009 (ip), vehicle: saline with Tween-80",90 % of control
same,T/C,[2],94 % of control
same,T/C,"endpoint: mean survival time, dose: 400.0 mg/kg/injection, schedule: Q01DX009 (ip), vehicle: saline with Tween-80",96 % of control
same,T/C,[3],87 % of control
O=P(O)(O)OCC(O)CCl (centres undefined),T/C,[6],96 % of control
same,T/C,[12],100 % of control
same,T/C,[7],92 % of control
same,T/C,[13],91 % of control
same,T/C,[14],103 % of control
COc1ccc(OC)c(CCN)c1,T/C,"endpoint: mean survival time, dose: 12.5 mg/kg/injection, schedule: Q01DX009 (ip), vehicle: saline with Tween-80",101 % of control
same,T/C,"endpoint: mean survival time, dose: 25.0 mg/kg/injection, schedule: Q01DX009 (ip), vehicle: saline with Tween-80",102 % of control
same,T/C,[4],100 % of control
same,T/C,"endpoint: mean survival time, dose: 50.0 mg/kg/injection, schedule: Q01DX009 (ip), vehicle: saline with Tween-80",93 % of control
same,T/C,"endpoint: mean survival time, dose: 50.0 mg/kg/injection, schedule: Q04DX003 (ip), vehicle: saline with Tween-80",97 % of control
same,T/C,[1],108 % of control
CCCC(=O)O.CCCC(=O)O.CCCC(=O)O.CCCC(=O)O.O=P1(N(CCCl)CCCl)NCCCO1.O=P1(N(CCCl)CCCl)NCCCO1.[Rh].[Rh] (centres undefined),T/C,"endpoint: median survival time, dose: 0.13 mg/kg/injection, schedule: Q01DX001 (ip), vehicle: olive oil, sesame oil, peanut oil",101 % of control
same,T/C,"endpoint: median survival time, dose: 0.25 mg/kg/injection, schedule: Q01DX001 (ip), vehicle: olive oil, sesame oil, peanut oil",102 % of control
same,T/C,"endpoint: median survival time, dose: 0.5 mg/kg/injection, schedule: Q01DX001 (ip), vehicle: olive oil, sesame oil, peanut oil",103 % of control
same,T/C,"endpoint: median survival time, dose: 1.0 mg/kg/injection, schedule: Q01DX001 (ip), vehicle: olive oil, sesame oil, peanut oil",95 % of control
same,T/C,"endpoint: median survival time, dose: 2.0 mg/kg/injection, schedule: Q01DX001 (ip), vehicle: olive oil, sesame oil, peanut oil",102 % of control
C1CC[N-]CC1.[Cl][Pt+2][Cl].[NH2-],T/C,[8],100 % of control
same,T/C,[9],96 % of control
same,T/C,[10],94 % of control
same,T/C,[11],91 % of control
C=CCNc1ncnc2c1ncn2C1OC(CO)C(O)C1O (centres undefined),T/C,"endpoint: mean survival time, dose: 75.0 mg/kg/injection, schedule: Q01DX001 (ip), vehicle: other",112 % of control
same,T/C,"endpoint: mean survival time, dose: 150.0 mg/kg/injection, schedule: Q01DX001 (ip), vehicle: other",103 % of control
